Read-outs that look alike come from different tables or passages of the source.
Assays:
[1] = CellTiter-Glo cell viability assay (cytotoxicity), HEK293; format: cell-based; settings: human, HEK293, 72 h treatment, read-out: In vitro cytotoxicity EC50 ± SD HEK293
Experimental: (§1) Cells were obtained from the following sources: HEK293 (ATCC, cat # CRL-1573), MOLT-4 (ATCC, cat # CRL-1582). Cell lines were routinely tested for Mycoplasma contamination with the MycoAlert PLUS Mycoplasma Detection Kit (Lonza Bioscience, cat # LT07) according to manufacturer protocol. Cell number and cell viability were measured using the Countess Automated Cell Counter (Invitrogen) using Trypan blue stain (Invitrogen, cat # T10282). Human embryonic kidney HEK293 cells were maintained in DMEM with high glucose and GlutaMAX (Gibco, cat # 10566016) supplemented with 10% HyClone Characterized Fetal Bovine Serum (Cytiva, cat # SH30071.03), and 100 µ mL^−1 Penicillin-Streptomycin (Gibco, cat # 15140122). Human T lymphoblast MOLT-4 cells were maintained in RPMI 1640 Medium (Gibco, cat # 11875093) supplemented with 10% HyClone Characterized Fetal Bovine Serum (Cytiva, cat # SH30071.03), 100 µ mL^−1 Penicillin-Streptomycin (Gibco, cat # 15140122), and 10 mM HEPES (Gibco, 15630080). Cells were cultured in incubators maintained at 37 °C with 5% CO2 and 95% relative humidity.
(§2) The CTG assay (Promega, cat # G7572) was used to quantify cellular ATP according to manufacturer protocols. The Multidrop Combi liquid dispenser (ThermoFisher) was used to dispense 4 µL of cells into white 1536-well microplates (Corning, cat # 7464) at a density of 1500 cells/well. Plated cells were incubated overnight. (−)-Premarineosin A (3) and derivatives were transferred into respective wells of each plate at 25 nL/well with the mosquito (SPT Labtech) in 16-pt, 1:3 titrations for a final concentration of 125 µM–8.71 pM for compounds with a high concentration of 20 mM, or 62.5 µM–4.36 pM for compounds with a high concentration of 10 mM. Controls were transferred into respective wells of each plate at 25 nL/well with the mosquito with a 16-pt, 1:2 titration of Digitonin for a final concentration of 125 µM–3.81 nM. The final concentration of DMSO was 0.58%. Cells were incubated for either 24, 48, and 72 h, after which point 3 µL/well of CTG was transferred to each plate with the BioRaptr 2.0 FRD (LetsGoRobotics). Plates were incubated for 10 min in the dark at ambient temperature for 10 min. Luminescence was measured using a ViewLux 1430Ultra HTS (PerkinElmer) with the following optical settings: exposure = 1 s, gain = high, speed = slow, binning = 2X. Dimethyl sulfoxide (“DMSO”; AMRESCO, cat # RGE-3070) was used as a vehicle control. Digitonin (Sigma-Aldrich, cat # D141) was prepared as a 20 mM stock solution in DMSO and stored at −30 °C for use as a cytotoxicity control. (−)-Premarineosin A (3) and derivatives were prepared at either 10 mM or 20 mM stock solutions in DMSO. Data were normalized to 125 µM Digitonin as −100% inhibition in a row-wise manner across the plate. Normalization was performed in Excel (Microsoft) and Concentration Response Curves (CRCs) were plotted in GraphPad Prism (GraphPad Software, Inc.) with error bars representing the standard deviation of four replicate wells (Supplementary Fig. 9).

[2] = system: Plasmodium falciparum 3D7 (chloroquine-sensitive); test: In vitro antimalarial growth inhibition assay (SYBR green), 3D7; format: cell-based; settings: for EC50: Plasmodium falciparum
Experimental: The antimalarial growth inhibition assay was performed as described previously. […] Tested compounds were threefold diluted in triplicate with concentrations ranging from 20 – 0.001 µM/10 – 0.0005 µM. The parasites were incubated with the drug at 37 °C under mixed gas (5% O2, 5% CO2, and 90% N2) conditions for 48 h. DNA was released from the cultured parasite and stained with SYBR green dye. The plate was placed in the dark with gentle agitation for 1 h, and signals were read in a FLUOstar OPTIMA reader (BMG Labtech, Germany). Data from the microplate reader were analyzed as described previously[68] and plotted using Prism 9.0 software (GraphPad Software, Inc., San Diego, CA). Each in vitro experiment was performed in triplicate wells and repeated twice. Response Curves (CRCs) were plotted in GraphPad Prism (GraphPad Software, Inc.) with error bars representing the standard deviation of three replicate wells (Supplementary Fig. 10).

Plasmodium = system: Plasmodium; design: method as in PMID 24575817, PMID 19007176; settings: cited from earlier work
[3] = system: Plasmodium falciparum Dd2 (chloroquine-resistant); test: In vitro antimalarial growth inhibition assay (SYBR green), Dd2; format: cell-based; settings: for Fold more potent than chloroquine, Dd2: Dd2, versus chloroquine; for EC50: Plasmodium falciparum, read-out: In vitro activity EC50 ± SD P. falciparum Dd2
Experimental: The antimalarial growth inhibition assay was performed as described previously. Briefly, the Plasmodium falciparum Dd2 and 3D7 parasites were diluted to 0.75% parasitemia with 2% hematocrit, and 50 μL diluted parasites were added to each well in a 96-well plate containing 50 μL of properly diluted drugs. Tested compounds were threefold diluted in triplicate with concentrations ranging from 20 – 0.001 µM/10 – 0.0005 µM. The parasites were incubated with the drug at 37 °C under mixed gas (5% O2, 5% CO2, and 90% N2) conditions for 48 h. DNA was released from the cultured parasite and stained with SYBR green dye. The plate was placed in the dark with gentle agitation for 1 h, and signals were read in a FLUOstar OPTIMA reader (BMG Labtech, Germany). Data from the microplate reader were analyzed as described previously[68] and plotted using Prism 9.0 software (GraphPad Software, Inc., San Diego, CA). Each in vitro experiment was performed in triplicate wells and repeated twice. Response Curves (CRCs) were plotted in GraphPad Prism (GraphPad Software, Inc.) with error bars representing the standard deviation of three replicate wells (Supplementary Fig. 10).

[4] = CellTiter-Glo cell viability assay (cytotoxicity), MOLT4; format: cell-based; settings: human, MOLT4, 72 h treatment, read-out: In vitro cytotoxicity EC50 ± SD MOLT4
Experimental: as §1, §2

[5] = 3D7 chloroquine-sensitive, 48 h treatment, read-out: In vitro activity EC50 ± SD P. falciparum 3D7
[6] = Dd2 chloroquine-resistant, 48 h treatment
[7] = 3D7, 48 h, read-out: In vitro activity EC50 ± SD P. falciparum 3D7
[8] = MOLT-4 T-cell leukemia (T lymphoblast) cells
[9] = 3D7 chloroquine-sensitive, 48 h treatment

| Structure (SMILES) | EC50 at 72 h [1] [µM] | EC50 [2, 5] [nM] | EC50 [3, 6] [nM] | EC50 at 72 h [4] [nM] | EC50 [2, 7] [nM] | EC50 ([3]; DD2, 48 h) [nM] | other results |
| --- | --- | --- | --- | --- | --- | --- | --- |
| COC1=CC(c2ccc[nH]2)=N[C@@]12O[C@H](C)C[C@H]1CCCCCCCc3ccc([nH]3)[C@@H]12 [compound 3, (−)-premarineosin A] | 1.47 ± 0.427 | 4 ± 0.1 | 1 ± 0.7 | 1060 ± 336 |  |  | Fold more potent than artesunate, 3D7 ([2]; 3D7, versus artesunate): 6 fold; Fold more potent than chloroquine, 3D7 ([2]; 3D7, versus chloroquine): over 10 fold; Antimalarial activity in vitro (Plasmodium): single-digit nanomolar; Fold more potent than artesunate, Dd2 ([3]; Dd2, versus artesunate): 8 fold; Fold more potent than chloroquine, Dd2 [3]: > 350 fold |
| C[C@H]1[C@H](OC(=O)CCC(=O)O)O[C@@H]2O[C@@]3(C)CC[C@H]4[C@H](C)CC[C@@H]1[C@@]24OO3 [Artesunate, reference compound] |  | 24 ± 6 | 8 ± 2 |  |  |  |  |
| COC1=CC(c2ccc(Br)[nH]2)=N[C@@]12O[C@H](C)C[C@H]1CCCCCCCc3ccc([nH]3)[C@@H]12 [compound 11, 1-bromo premarineosin A] | 19.2 ± 1.73 |  |  | 1330 ± 691 | 473 ± 113 | 259 ± 24 |  |
| COC1=CC(c2ccc[nH]2)=N[C@@]12O[C@H](C)C[C@H]1CCCCCCCc3[nH]c(cc3C(C)(c3cc4[nH]c3CCCCCCC[C@@H]3C[C@@H](C)O[C@@]5(N=C(c6ccc[nH]6)C=C5OC)[C@@H]43)C(F)(F)F)[C@@H]12 [compound 6, Trifluoromethyl-bridged premarineosin A] |  | 5070 ± 1000 | 2320 ± 448 |  |  |  | EC50 at 72 h ([1]; HEK293 embryonic kidney cells): 11 ± 2.15 µM; EC50 at 72 h [4, 8]: 6510 ± 2740 nM |
| CCN(CC)CCCC(C)Nc1ccnc2cc(Cl)ccc12 (stereo not drawn) [Chloroquine, reference compound] |  |  |  |  | 41 ± 3 | 382 ± 22 |  |
| COC1=CC(c2ccc[nH]2)=N[C@@]12O[C@H](C)C[C@H]1CCCCCCCc3[nH]c(cc3Br)[C@@H]12 [compound 12, 12-bromo premarineosin A] | 1.63 ± 0.184 |  |  | 480 ± 84 | 2 | 22 ± 11 | EC50 ([2]; 3D7, read-out: EC50 against P. falciparum): < 5 nM; Fold more potent than chloroquine, Dd2 [3]: 17 fold |
| COC1=CC(c2ccc[nH]2)=N[C@@]12O[C@H](C)C[C@H]1CCCCCCCc3[nH]c(cc3C(C)=O)[C@@H]12 [compound 9, 12-acetyl premarineosin A] |  | 178 ± 25 | 180 ± 14 |  |  |  | EC50 at 72 h ([1]; HEK293 embryonic kidney cells): 6.59 ± 3.02 µM; In vitro activity EC50 ± SD P. falciparum 3D7 [2, 9]: sub-micromolar; In vitro activity EC50 ± SD P. falciparum Dd2 [3, 6]: sub-micromolar; EC50 at 72 h [4, 8]: 3670 ± 1010 nM |
| COC1=CC(c2ccc[nH]2)=N[C@@]12O[C@H](C)C[C@H]1CCCCCCCc3[nH]c(cc3CO)[C@@H]12 [compound 10, 12-hydroxymethyl-premarineosin A] | 18.4 ± 6.7 | 1230 ± 530 | 704 ± 304 | 19700 ± 1220 |  |  |  |
| COC1=CC(c2ccc[nH]2)=N[C@@]12O[C@H](C)C[C@H]1CCCCCCCc3[nH]c(cc3C(C)(C)c3cc4[nH]c3CCCCCCC[C@@H]3C[C@@H](C)O[C@@]5(N=C(c6ccc[nH]6)C=C5OC)[C@@H]43)[C@@H]12 [compound 4, gem-dimethyl-bridged premarineosin A] | 8.29 ± 1.66 |  |  | 2260 ± 777 | 1890 ± 243 | 1240 ± 168 |  |
| COC1=CC(c2ccc[nH]2)=N[C@@]12O[C@H](C)C[C@H]1CCCCCCCc3[nH]c(cc3C(C)(O)C(F)(F)F)[C@@H]12 (stereo partly drawn) [compound 7, 12-trifluoropropanol premarineosin A] |  | 203 ± 10 | 87 ± 15 |  |  |  | EC50 at 72 h ([1]; HEK293 embryonic kidney cells): 4.21 ± 0.481 µM; In vitro activity EC50 ± SD P. falciparum 3D7 [2, 9]: sub-micromolar; In vitro activity EC50 ± SD P. falciparum Dd2 [3, 6]: sub-micromolar; EC50 at 72 h [4, 8]: 1490 ± 388 nM |
| COC1=CC(c2ccc[nH]2)=N[C@@]12O[C@H](C)C[C@H]1CCCCCCCc3[nH]c(cc3Cc3cc4[nH]c3CCCCCCC[C@@H]3C[C@@H](C)O[C@@]5(N=C(c6ccc[nH]6)C=C5OC)[C@@H]43)[C@@H]12 [compound 5, Methylene-bridged premarineosin A] | 8.31 ± 1.46 | 1390 ± 265 | 548 ± 76 | 1160 ± 94 |  |  |  |
| COC1=CC(c2ccc[nH]2)=N[C@@]12O[C@H](C)C[C@H]1CCCCCCCc3[nH]c(cc3C=O)[C@@H]12 [compound 8, 12-formyl premarineosin A] | 7.79 ± 1.62 | 165 ± 55 | 222 ± 53 | 6630 ± 836 |  |  | In vitro activity EC50 ± SD P. falciparum 3D7 [2, 9]: sub-micromolar; In vitro activity EC50 ± SD P. falciparum Dd2 [3, 6]: sub-micromolar |
